{"source": "patent US20150119244A1", "about": "“AGRICULTURAL USES OF HYTd” (Agrinos AS, priority 2011, published 2015)", "system": "potatoes", "test": "Potato trial in soil infested with fungi, test vs Metam-Sodium (Example 4)", "description": "Three hundred liters of Metam Sodium was applied per hectare.", "data": [{"smiles": "CNC(=S)S", "note": "[Metam-Sodium]", "values": [{"measurement": "Kilos", "setting": "potatoes of size 1st", "value": 0.32, "unit": "Kilos"}, {"measurement": "Pieces", "setting": "potatoes of size 1st", "value": 1}, {"measurement": "Kilos", "setting": "potatoes of size 4ta", "value": 3.63, "unit": "Kilos"}, {"measurement": "Pieces", "setting": "potatoes of size 4ta", "value": 88}, {"measurement": "Kilos", "setting": "potatoes of size 2d", "value": 6.46, "unit": "Kilos"}, {"measurement": "Pieces", "setting": "potatoes of size 2d", "value": 35}, {"measurement": "Kilos", "setting": "potatoes of size 3d", "value": 2.67, "unit": "Kilos"}, {"measurement": "Pieces", "setting": "potatoes of size 3d", "value": 24}, {"measurement": "Kilos", "setting": "potatoes of size GIANT", "value": 0.43, "unit": "Kilos"}, {"measurement": "Pieces", "setting": "potatoes of size GIANT", "value": 1}, {"measurement": "Kilos", "setting": "potatoes of size MONO", "value": 1.47, "unit": "Kilos"}, {"measurement": "Pieces", "setting": "potatoes of size MONO", "value": 6}, {"measurement": "Kilos", "setting": "potatoes, TOTAL of all sizes", "value": 15.0, "unit": "Kilos"}, {"measurement": "Pieces", "setting": "potatoes, TOTAL of all sizes", "value": 155}]}]}
